Data from US20200361895A1, “NOVEL SULFONAMIDE CARBOXAMIDE COMPOUNDS” (Inflazome Limited, priority 2017, published 2020).
Counter-ions that a name gives are not always drawn.

How the values were obtained:
NLRP3 [1] = biological target: T1, NLRP3 (Homo sapiens, UniProt Q96P20); experiment: THP-1 cells pyroptosis assay (LPS + nigericin, resazurin readout; THP IC50); type: cell-based; parameters: Seed THP-1 cells (25,000 cells/well) containing 1.0 μg/ml LPS in 40 μl of RPMI medium; host or cells: THP-1 cells
Method in brief: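 IC50 from 4-parameter fit of resazurin fluorescence (100 μM, 1-2 hrs), reflecting surviving cells after pyroptosis. LPS-primed (1 μg/ml) THP-1 cells in FBS-free RPMI got compound for 3 hrs at 37° C (top 10 μM, half-log, 8 points), then nigericin 5 μM for 1 hr.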

NLRP3 [2] = biological target: T1, NLRP3; experiment: Human whole blood IL1β release assay (LPS + nigericin, AlphaLisa IL-1β; HWB IC50); type: cell-based; parameters: Human whole blood in Li-heparin tubes was obtained from healthy donors from a volunteer donor panel; from tissue; host or cells: human whole blood from healthy donors; conditions: IL-1β release
Method in brief: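 IL-1β in plasma supernatant quantified by AlphaLisa after nigericin (10 μM final, 1 h, 37 °C) triggering of human whole blood that had been preincubated 3 h with LPS (1 μg/ml) plus compound (half-log, 8 points, from 10 μM). IC50 by variable-slope four-parameter regression.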

T1 sequence (Q96P20 whole entry): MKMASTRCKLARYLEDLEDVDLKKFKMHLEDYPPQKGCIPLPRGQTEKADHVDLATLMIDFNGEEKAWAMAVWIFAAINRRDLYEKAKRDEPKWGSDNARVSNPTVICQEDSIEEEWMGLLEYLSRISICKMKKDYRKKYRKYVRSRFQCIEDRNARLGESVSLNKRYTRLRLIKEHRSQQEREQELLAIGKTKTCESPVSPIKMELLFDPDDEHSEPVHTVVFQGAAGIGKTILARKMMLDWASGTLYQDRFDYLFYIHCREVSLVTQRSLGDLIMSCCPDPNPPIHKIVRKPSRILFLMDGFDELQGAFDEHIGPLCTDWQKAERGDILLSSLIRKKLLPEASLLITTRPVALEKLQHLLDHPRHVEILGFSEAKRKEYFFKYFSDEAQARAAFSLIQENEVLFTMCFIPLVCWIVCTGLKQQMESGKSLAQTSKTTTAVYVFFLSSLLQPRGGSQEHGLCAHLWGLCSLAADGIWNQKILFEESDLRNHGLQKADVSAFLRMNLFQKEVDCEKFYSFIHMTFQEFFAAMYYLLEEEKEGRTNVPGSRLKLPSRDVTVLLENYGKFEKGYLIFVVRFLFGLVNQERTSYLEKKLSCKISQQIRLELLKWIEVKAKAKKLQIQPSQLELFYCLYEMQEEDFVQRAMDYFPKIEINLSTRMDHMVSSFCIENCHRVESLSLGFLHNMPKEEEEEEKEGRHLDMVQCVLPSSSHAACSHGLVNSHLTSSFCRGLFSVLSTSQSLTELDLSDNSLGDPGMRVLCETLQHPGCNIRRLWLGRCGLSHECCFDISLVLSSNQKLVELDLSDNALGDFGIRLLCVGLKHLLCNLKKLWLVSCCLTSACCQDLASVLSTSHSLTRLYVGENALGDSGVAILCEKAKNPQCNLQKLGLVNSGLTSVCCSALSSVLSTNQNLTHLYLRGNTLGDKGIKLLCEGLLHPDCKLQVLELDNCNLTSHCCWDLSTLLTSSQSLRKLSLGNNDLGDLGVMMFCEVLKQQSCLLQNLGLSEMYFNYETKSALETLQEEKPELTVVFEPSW

Row | Compound | IC50 (NLRP3 [1]) [nM] | IC50 (NLRP3 [2]) [nM]
1 | CC(C)n1ccc(S(=O)(=O)NC(=O)Nc2c(-c3cccnc3)cc(F)c3c2CCC3)n1 [Example 206, N-((7-Fluoro-5-(pyridin-3-yl)-2,3-dihydro-1H-inden-4-yl)carbamoyl)-1-isopropyl-1H-pyrazole-3-sulfonamide] | ≤ 500 | ≤ 5000
2 | CC(C)n1ccc(S(=O)(=O)NC(=O)Nc2c(-c3cccnc3)ccc3ccccc23)n1 [Example 207, 1-Isopropyl-N-((2-(pyridin-3-yl)naphthalen-1-yl)carbamoyl)-1H-pyrazole-3-sulfonamide] | ≤ 1000 | ≤ 5000
3 | COc1cc(-c2ccc3ccccc3c2NC(=O)NS(=O)(=O)c2ccn(C(C)C)n2)ccn1 [Example 209, 1-Isopropyl-N-((2-(2-methoxypyridin-4-yl)naphthalen-1-yl)carbamoyl)-1H-pyrazole-3-sulfonamide] | ≤ 500 | ≤ 5000
4 | COc1cc(-c2cc(F)cc(C3CC3)c2NC(=O)NS(=O)(=O)c2ccn(C(C)C)n2)ccn1 [Example 210, N-((2-Cyclopropyl-4-fluoro-6-(2-methoxypyridin-4-yl)phenyl)carbamoyl)-1-isopropyl-1H-pyrazole-3-sulfonamide] | ≤ 500 | ≤ 5000
5 | COc1cc(-c2cc(F)cc(C3CCCC3)c2NC(=O)NS(=O)(=O)c2ccn(C(C)C)n2)ccn1 [Example 211, N-((2-Cyclopentyl-4-fluoro-6-(2-methoxypyridin-4-yl)phenyl)carbamoyl)-1-isopropyl-1H-pyrazole-3-sulfonamide] | ≤ 500 | ≤ 5000
6 | COc1cc(-c2ccc3c(c2NC(=O)NS(=O)(=O)c2ccn(C(C)C)n2)CCCC3)ccn1 [Example 213, 1-Isopropyl-N-((2-(2-methoxypyridin-4-yl)-5,6,7,8-tetrahydronaphthalen-1-yl)carbamoyl)-1H-pyrazole-3-sulfonamide] | ≤ 500 | ≤ 5000
7 | CC(C)Oc1cc(-c2ccc3c(c2NC(=O)NS(=O)(=O)c2ccn(C(C)C)n2)CCC3)ccn1 [Example 216, N-((5-(2-Isopropoxypyridin-4-yl)-2,3-dihydro-1H-inden-4-yl)carbamoyl)-1-isopropyl-1H-pyrazole-3-sulfonamide] | ≤ 500 | ≤ 5000
8 | CC(C)n1ccc(S(=O)(=O)NC(=O)Nc2c(-c3cc[nH]c(=O)c3)ccc3c2CCC3)n1 [Example 218, 1-Isopropyl-N-((5-(2-oxo-1,2-dihydropyridin-4-yl)-2,3-dihydro-1H-inden-4-yl)carbamoyl)-1H-pyrazole-3-sulfonamide] | ≤ 500 | ≤ 1000
9 | COc1cc(-c2ccc3c(c2NC(=O)NS(=O)(=O)c2ccn(C(C)(C)CN4CCC4)n2)CCC3)ccn1 [Example 219, 1-(1-(Azetidin-1-yl)-2-methylpropan-2-yl)-N-((5-(2-methoxypyridin-4-yl)-2,3-dihydro-1H-inden-4-yl)carbamoyl)-1H-pyrazole-3-sulfonamide] | ≤ 500 | ≤ 500
10 | CC(C)n1ccc(S(=O)(=O)NC(=O)Nc2c(-c3ccnc(C#N)c3)cc(Cl)c3c2CCC3)n1 [Example 225, N-((7-Chloro-5-(2-cyanopyridin-4-yl)-2,3-dihydro-1H-inden-4-yl)carbamoyl)-1-isopropyl-1H-pyrazole-3-sulfonamide, sodium salt] | ≤ 500 | ≤ 5000
11 | COc1cc(-c2cc(Cl)c3c(c2NC(=O)NS(=O)(=O)c2ccn(C(C)C)n2)CCC3)ccn1 [Example 226, N-((7-Chloro-5-(2-methoxypyridin-4-yl)2,3-dihydro-1H-inden-4-yl)carbamoyl)-1-isopropyl-1H-pyrazole-3-sulfonamide, sodium salt] | ≤ 500 | ≤ 1000
12 | N#Cc1cc(-c2ccc3c(c2NC(=O)NS(=O)(=O)c2ccn(C4CCC4)n2)CCC3)ccn1 [Example 227, N-((5-(2-Cyanopyridin-4-yl)-2,3-dihydro-1H-inden-4-yl)carbamoyl)-1-cyclobutyl-1H-pyrazole-3-sulfonamide] | ≤ 500 | ≤ 500
13 | COc1cc(-c2ccc3c(c2NC(=O)NS(=O)(=O)c2ncn(C(C)C)n2)CCC3)ccn1 [Example 232, 1-Isopropyl-N-((5-(2-methoxypyridin-4-yl)-2,3-dihydro-1H-inden-4-yl)carbamoyl)-1H-1,2,4-triazole-3-sulfonamide, sodium salt] | ≤ 500 | ≤ 1000
14 | COc1cc(-c2ccc3c(c2NC(=O)NS(=O)(=O)c2cn(C(C)C)cn2)CCC3)ccn1 [Example 233, 1-Isopropyl-N-((5-(2-methoxypyridin-4-yl)-2,3-dihydro-1H-inden-4-yl)carbamoyl)-1H-imidazole-4-sulfonamide] | ≤ 500 | ≤ 1000
15 | COc1cc(-c2ccc3c(c2NC(=O)NS(=O)(=O)c2cn(C(C)C)nn2)CCC3)ccn1 [Example 234, 1-Isopropyl-N-((5-(2-methoxypyridin-4-yl)-2,3-dihydro-1H-inden-4-yl)carbamoyl)-1H-1,2,3-triazole-4-sulfonamide, sodium salt] | ≤ 500 | ≤ 1000
16 | COc1cc(-c2ccc3c(c2NC(=O)NS(=O)(=O)c2cnn(CC(F)F)c2)CCC3)ccn1 [Example 235, 1-(2,2-Difluoroethyl)-N-((5-(2-methoxypyridin-4-yl)-2,3-dihydro-1H-inden-4-yl)carbamoyl)-1H-pyrazole-4-sulfonamide, sodium salt] | ≤ 500 | ≤ 500
17 | CC(C)n1ccc(S(=O)(=O)NC(=O)Nc2c(-c3ccnc(OC(F)F)c3)ccc3c2CCC3)n1 [Example 237, N-((5-(2-(Difluoromethoxy)pyridin-4-yl)-2,3-dihydro-1H-inden-4-yl)carbamoyl)-1-isopropyl-1H-pyrazole-3-sulfonamide, sodium salt] | ≤ 500 | ≤ 1000
18 | COc1cc(-c2ccc3c(c2NC(=O)NS(=O)(=O)c2ccn(C(C)(C)CN4CC(F)C4)n2)CCC3)ccn1 [Example 242, 1-(1-(3-Fluoroazetidin-1-yl)-2-methylpropan-2-yl)-N-((5-(2-methoxypyridin-4-yl)-2,3-dihydro-1H-inden-4-yl)carbamoyl)-1H-pyrazole-3-sulfonamide, sodium salt] | ≤ 500 | ≤ 500

Other lines, results leading:

Row | IC50 (NLRP3 [1]) [nM] | IC50 (NLRP3 [2]) [nM] | Compound
19 | ≤ 500 | ≤ 1000 | CCOc1cc(-c2ccc3c(c2NC(=O)NS(=O)(=O)c2ccn(C(C)C)n2)CCC3)ccn1 [Example 214, N-((5-(2-Ethoxypyridin-4-yl)-2,3-dihydro-1H-inden-4-yl)carbamoyl)-1-isopropyl-1H-pyrazole-3-sulfonamide]
20 | ≤ 500 | ≤ 500 | CC(C)n1ccc(S(=O)(=O)NC(=O)Nc2c(-c3ccnc(C#N)c3)ccc3c2CCC3)n1 [Example 215, N-((5-(2-Cyanopyridin-4-yl)-2,3-dihydro-1H-inden-4-yl)carbamoyl)-1-isopropyl-1H-pyrazole-3-sulfonamide]
21 | ≤ 500 | ≤ 500 | N#Cc1cc(-c2ccc3c(c2NC(=O)NS(=O)(=O)c2ccn(C4CC4)n2)CCC3)ccn1 [Example 222, N-((5-(2-Cyanopyridin-4-yl)-2,3-dihydro-1H-inden-4-yl)carbamoyl)-1-cyclopropyl-1H-pyrazole-3-sulfonamide, sodium salt]
22 | ≤ 500 | ≤ 500 | CC(C)n1cnc(S(=O)(=O)NC(=O)Nc2c(-c3ccnc(C#N)c3)ccc3c2CCC3)n1 [Example 228, N-((5-(2-Cyanopyridin-4-yl)-2,3-dihydro-1H-inden-4-yl)carbamoyl)-1-isopropyl-1H-1,2,4-triazole-3-sulfonamide, sodium salt]
23 | ≤ 500 | ≤ 500 | CC(C)n1cnc(S(=O)(=O)NC(=O)Nc2c(-c3ccnc(C#N)c3)ccc3c2CCC3)c1 [Example 229, N-((5-(2-Cyanopyridin-4-yl)-2,3-dihydro-1H-inden-4-yl)carbamoyl)-1-isopropyl-1H-imidazole-4-sulfonamide]
24 | ≤ 500 | ≤ 500 | N#Cc1cc(-c2ccc3c(c2NC(=O)NS(=O)(=O)c2cnn(CC(F)F)c2)CCC3)ccn1 [Example 231, N-((5-(2-Cyanopyridin-4-yl)-2,3-dihydro-1H-inden-4-yl)carbamoyl)-1-(2,2-difluoroethyl)-1H-pyrazole-4-sulfonamide, sodium salt]
25 | ≤ 500 | ≤ 500 | COc1cc(-c2ccc3c(c2NC(=O)NS(=O)(=O)c2ccn(C(C)(C)CN4CC(C)C4)n2)CCC3)ccn1 [Example 236, N-((5-(2-Methoxypyridin-4-yl)-2,3-dihydro-1H-inden-4-yl)carbamoyl)-1-(2-methyl-1-(3-methylazetidin-1-yl)propan-2-yl)-1H-pyrazole-3-sulfonamide]
26 | ≤ 500 | ≤ 500 | COc1cc(-c2ccc3c(c2NC(=O)NS(=O)(=O)c2nn(C(C)C)cc2F)CCC3)ccn1 [Example 239, 4-Fluoro-1-isopropyl-N-((5-(2-methoxypyridin-4-yl)-2,3-dihydro-1H-inden-4-yl)carbamoyl)-1H-pyrazole-3-sulfonamide]
27 | ≤ 500 | ≤ 500 | COc1cc(-c2ccc3c(c2NC(=O)NS(=O)(=O)c2ccn(C(C)(C)CN4CCCC4)n2)CCC3)ccn1 [Example 243, N-((5-(2-Methoxypyridin-4-yl)-2,3-dihydro-1H-inden-4-yl)carbamoyl)-1-(2-methyl-1-(pyrrolidin-1-yl)propan-2-yl)-1H-pyrazole-3-sulfonamide, sodium salt]
